This note sets out measurements from patent US6444669B1, “8,8A-DIHYDROINDENO[1,2-D]THIAZOLE DERIVATIVES WHICH CARRY IN THE 2-POSITION A SUBSTITUENT HAVING A SULFONAMIDE STRUCTURE OR SULFONE STRUCTURE; PROCESSES FOR THEIR PREPARATION AND THEIR USE AS MEDICAMENTS” (Aventis Pharma Deutschland GmbH, priority 2000, dated 2002).

Series [1] has as its system male or female NMRI mice. In words: Anorectic action: cumulated evaporated milk consumption after 24 h feed withdrawal. The class given is in vivo. As for the experimental part:
The anorectic action was tested on male or female NMRI mice. After withdrawal of feed for 24 hours, the test preparation was administered via a stomach tube. Kept individually and with free access to drinking water, the animals were offered evaporated milk 30 minutes after the administration of the preparation. The consumption of evaporated milk was determined half-hourly for 3 hours and the general condition of the animals was observed. The measured milk consumption was compared with that of untreated control animals.

In general, melting point refers to the temperature, or range, at which the solid turns liquid. The compound `NS(=O)(=O)c1ccc(C2=NC3(O)c4ccc(Cl)cc4CC3S2)cc1` (stereo not drawn) [Example 5, 4-(6-Chloro-3a-hydroxy-8,8a-dihydro-3aH-indeno[1,2-d]thiazol-2-yl)benzenesulfonamide] yielded a melting point of 160 °C. Further, in series [1] (male animals, oral dose 50 mg/kg, compared with untreated control animals), the “Reduction of the cumulated milk consumption in % of the control” value worked out at 95%. In series [1] (oral dose 50 mg/kg via stomach tube, N=5, milk consumption determined half-hourly for 3 hours), the “cumulated milk consumption of the treated animals” value is 5/0.08 ml.
